Here are results for 5 molecules from ChEMBL document CHEMBL5608164, “Targeting kelch-like (KLHL) proteins: achievements, challenges and perspectives” (Eur J Med Chem, 2024).

One assay addresses T1, Kelch-like protein 3 (Homo sapiens, UniProt Q9UH77).
T1 sequence (Q9UH77 whole entry): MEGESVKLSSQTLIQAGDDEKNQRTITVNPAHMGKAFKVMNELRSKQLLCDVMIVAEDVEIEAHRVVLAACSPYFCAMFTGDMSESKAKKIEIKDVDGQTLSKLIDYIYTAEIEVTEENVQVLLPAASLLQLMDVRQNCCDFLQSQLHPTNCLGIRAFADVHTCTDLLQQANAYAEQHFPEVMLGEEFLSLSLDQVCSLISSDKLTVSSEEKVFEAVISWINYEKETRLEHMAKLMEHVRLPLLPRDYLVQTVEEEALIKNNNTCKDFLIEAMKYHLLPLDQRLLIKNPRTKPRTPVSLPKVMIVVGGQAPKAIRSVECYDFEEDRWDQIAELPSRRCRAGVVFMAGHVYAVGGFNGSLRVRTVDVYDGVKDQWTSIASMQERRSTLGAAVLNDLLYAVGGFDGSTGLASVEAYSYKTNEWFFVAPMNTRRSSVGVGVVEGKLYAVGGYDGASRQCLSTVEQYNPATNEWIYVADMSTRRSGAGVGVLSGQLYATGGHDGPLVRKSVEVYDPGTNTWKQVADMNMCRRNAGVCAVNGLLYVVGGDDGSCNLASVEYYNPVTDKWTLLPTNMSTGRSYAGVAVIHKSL
As to the kind of experiment: Binding affinity to KLHL3 (unknown origin) assessed as dissociation constant by fluorescence polarization assay. For orientation: In fluorescence polarisation assays a small probe gives low polarisation when free and higher when bound to something large.

A short description of assay [1]: Inhibition of human Kelch-like protein extracted from Escherichia coli.
The target of a further assay is Keap1/Nrf2 (Homo sapiens, UniProt Q14145). Nature of the assay: Inhibition of Keap1-Nrf2 protein-protein interaction (unknown origin) by fluorescence polarization assay.
The target of assay [2] is T2, Kelch-like protein 12 (Homo sapiens, UniProt Q53G59).
T2 sequence (Q53G59 whole entry): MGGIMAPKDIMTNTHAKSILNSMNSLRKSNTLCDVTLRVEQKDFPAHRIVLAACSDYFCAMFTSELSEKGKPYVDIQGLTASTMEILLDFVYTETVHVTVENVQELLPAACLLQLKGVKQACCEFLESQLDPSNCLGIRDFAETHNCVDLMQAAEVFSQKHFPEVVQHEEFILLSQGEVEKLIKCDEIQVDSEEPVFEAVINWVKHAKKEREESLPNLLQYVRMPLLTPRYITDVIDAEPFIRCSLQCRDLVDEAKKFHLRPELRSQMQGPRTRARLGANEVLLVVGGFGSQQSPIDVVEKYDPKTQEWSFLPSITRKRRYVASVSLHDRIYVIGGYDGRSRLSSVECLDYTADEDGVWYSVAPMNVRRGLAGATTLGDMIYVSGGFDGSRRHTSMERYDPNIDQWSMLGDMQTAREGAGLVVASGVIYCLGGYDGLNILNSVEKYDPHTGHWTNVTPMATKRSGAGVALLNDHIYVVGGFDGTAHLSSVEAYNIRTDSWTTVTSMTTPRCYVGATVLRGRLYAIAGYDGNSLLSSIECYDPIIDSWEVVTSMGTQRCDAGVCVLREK
As to the kind of experiment: Binding affinity to KLHL12 (unknown origin) assessed as inhibition constant.

Assay [3] addresses T2, Kelch-like protein 12. As to the kind of experiment: Binding affinity to KLHL12 (unknown origin) extracted from Escherichia coli BL21 Gold (DE3) assessed as dissociation constant by fluorescence polarization assay.
The next assay deals with T3, Kelch-like protein 20 (Homo sapiens, UniProt Q9Y2M5).
T3 sequence (Q9Y2M5 whole entry): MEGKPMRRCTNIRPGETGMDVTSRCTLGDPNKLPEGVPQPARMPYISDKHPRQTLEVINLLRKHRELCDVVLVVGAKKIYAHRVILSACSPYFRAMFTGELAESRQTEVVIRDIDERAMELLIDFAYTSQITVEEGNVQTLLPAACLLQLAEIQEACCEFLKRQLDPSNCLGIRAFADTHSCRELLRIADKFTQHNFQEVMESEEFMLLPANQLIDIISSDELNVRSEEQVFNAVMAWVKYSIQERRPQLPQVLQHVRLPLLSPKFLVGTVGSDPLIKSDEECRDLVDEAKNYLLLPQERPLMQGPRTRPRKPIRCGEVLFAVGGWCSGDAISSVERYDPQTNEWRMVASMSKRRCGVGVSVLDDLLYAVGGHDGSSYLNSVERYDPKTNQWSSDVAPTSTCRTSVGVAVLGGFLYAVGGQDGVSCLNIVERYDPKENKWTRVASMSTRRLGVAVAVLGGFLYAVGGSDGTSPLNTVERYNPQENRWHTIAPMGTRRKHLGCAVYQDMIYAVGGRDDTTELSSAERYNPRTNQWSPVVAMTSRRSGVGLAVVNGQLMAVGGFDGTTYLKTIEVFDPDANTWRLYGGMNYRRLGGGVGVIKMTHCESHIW
Nature of the assay: Binding affinity to KLHL20 (unknown origin) assessed as dissociation constant by fluorescence polarization assay.

Starred links: 1 amine or outer side, 2 acyl side, 3 side chain; linkers in the order of their positions; H or OH if unused. Positions of bridges follow the written chain, without caps; N, C: chain ends. Residues, ends and D or L forms follow the SMILES beside them. mXylylene = c1cc(C[*:1])cc(C[*:2])c1

Sequence of Keap1/Nrf2 (Q16236 whole entry): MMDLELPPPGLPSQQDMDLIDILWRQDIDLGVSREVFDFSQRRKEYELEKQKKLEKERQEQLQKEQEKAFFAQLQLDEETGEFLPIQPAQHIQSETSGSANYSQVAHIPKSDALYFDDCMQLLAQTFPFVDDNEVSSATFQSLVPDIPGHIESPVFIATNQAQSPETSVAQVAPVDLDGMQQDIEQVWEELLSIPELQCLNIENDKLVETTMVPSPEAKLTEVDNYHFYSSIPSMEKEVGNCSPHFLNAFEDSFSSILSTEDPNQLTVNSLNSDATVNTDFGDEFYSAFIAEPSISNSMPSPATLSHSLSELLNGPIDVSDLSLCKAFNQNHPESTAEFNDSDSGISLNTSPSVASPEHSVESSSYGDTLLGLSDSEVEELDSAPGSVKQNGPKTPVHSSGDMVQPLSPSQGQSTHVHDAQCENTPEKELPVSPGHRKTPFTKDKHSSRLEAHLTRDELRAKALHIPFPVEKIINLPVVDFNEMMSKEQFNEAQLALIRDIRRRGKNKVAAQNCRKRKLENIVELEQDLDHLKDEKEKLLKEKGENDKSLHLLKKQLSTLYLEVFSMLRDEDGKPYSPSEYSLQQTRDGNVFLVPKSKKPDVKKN
Sequence of Keap1/Nrf2 (Q14145 whole entry): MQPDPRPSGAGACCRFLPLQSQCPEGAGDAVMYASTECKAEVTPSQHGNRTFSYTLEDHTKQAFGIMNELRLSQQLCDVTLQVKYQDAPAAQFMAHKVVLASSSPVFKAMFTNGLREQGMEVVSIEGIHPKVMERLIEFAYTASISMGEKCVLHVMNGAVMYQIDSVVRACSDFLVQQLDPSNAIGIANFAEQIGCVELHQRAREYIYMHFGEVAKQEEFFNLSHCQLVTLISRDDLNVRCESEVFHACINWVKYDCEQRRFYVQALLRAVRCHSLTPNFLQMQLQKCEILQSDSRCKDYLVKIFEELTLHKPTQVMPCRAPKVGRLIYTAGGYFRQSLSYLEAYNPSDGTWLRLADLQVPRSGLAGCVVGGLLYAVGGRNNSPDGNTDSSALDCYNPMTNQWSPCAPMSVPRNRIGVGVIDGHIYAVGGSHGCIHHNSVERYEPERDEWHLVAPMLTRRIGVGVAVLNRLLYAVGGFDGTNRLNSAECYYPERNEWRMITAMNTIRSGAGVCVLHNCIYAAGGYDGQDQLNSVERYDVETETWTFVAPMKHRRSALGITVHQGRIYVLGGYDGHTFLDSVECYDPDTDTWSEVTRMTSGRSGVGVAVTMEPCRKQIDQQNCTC

For H-EPEEPEADQHQ-OH, at Kelch-like protein 3, the dissociation constant (Kd) was 0.69 µM.

Regarding `CC(C)C[C@H](NC(=O)[C@H](Cc1ccccc1)NC(=O)[C@H](CCC(=O)O)NC(=O)CNC(=O)[C@@H](NC(=O)[C@H](CCC(=O)O)NC(=O)[C@H](CCC(=O)O)NC(=O)[C@H](CC(=O)O)NC(=O)[C@@H](N)CC(C)C)[C@@H](C)O)C(=O)O`, it took 0.02 µM to reach half-maximal inhibition in assay [1] (IC50).

In turn, Ac-DPSTGEL-OH returned an IC50 against Keap1/Nrf2 of 34.4 µM.

As to H-PGAPPGRDLASVP-OH, at Kelch-like protein 12 [2], the Ki was 21 µM. The Kd at Kelch-like protein 12 [3] stood at 15 µM.

On to `CC(C)C[C@@H]1NC(=O)[C@H](CC(=O)O)NC(=O)[C@@H]2CCCN2C(=O)[C@@H](N)CSCc2cccc(c2)CSC[C@@H](C(N)=O)NC1=O` (H-CPDLC-NH2; linker 1-5 via mXylylene), for which, on Kelch-like protein 20, the Kd is 0.6 µM.

What is called Kd is the free concentration of one partner at which half of the binding sites on the other are occupied at equilibrium, for simple one-to-one binding. A word on the IC50: it is the point on the concentration scale where inhibition reaches its midpoint. Broadly, the Ki is the dissociation constant of the complex between target and ligand, obtained from inhibition or displacement.
